Our source for the EC50 and Ratio EC50 values is ChEMBL document CHEMBL4627363, “S1P1-selective agonist prodrug IMMH002 is phosphorylated in rats to form an S-configured enantiomer: Synthesis, verification, and biological activity of the in vivo active metabolite” (Bioorg Med Chem Lett, 2020).

Experiment [1] addresses Sphingosine 1-phosphate receptor 1 (Homo sapiens, UniProt P21453). As to the kind of experiment: Agonist activity at S1P1 (unknown origin) by HTRF assay. In general terms: In TR-FRET formats the signal depends on donor and acceptor labels being close together.
Experiment [2] addresses Sphingosine 1-phosphate receptor 3 (Homo sapiens, UniProt Q99500). The experiment in a line: Agonist activity at S1PR3 (unknown origin) by HTRF assay.
For the next experiment, the species on record is Homo sapiens. The experiment in a line: Ratio of EC50 for S1PR3 (unknown origin) to EC50 for S1PR1 (unknown origin).

Molecules are shown by their SMILES. Some results are limits rather than exact numbers.

Sphingosine 1-phosphate receptor 1, sequence (P21453 whole entry): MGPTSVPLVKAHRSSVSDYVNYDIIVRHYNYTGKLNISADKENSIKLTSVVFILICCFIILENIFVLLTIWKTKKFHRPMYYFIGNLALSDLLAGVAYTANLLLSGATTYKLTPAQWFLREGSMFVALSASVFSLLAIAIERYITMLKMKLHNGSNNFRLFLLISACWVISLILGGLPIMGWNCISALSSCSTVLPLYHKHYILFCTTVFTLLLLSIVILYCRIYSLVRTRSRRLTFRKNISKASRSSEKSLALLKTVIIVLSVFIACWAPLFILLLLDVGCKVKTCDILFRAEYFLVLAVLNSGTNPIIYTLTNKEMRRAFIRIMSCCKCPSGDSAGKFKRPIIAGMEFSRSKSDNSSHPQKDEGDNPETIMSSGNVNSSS
Sphingosine 1-phosphate receptor 3, sequence (Q99500 whole entry): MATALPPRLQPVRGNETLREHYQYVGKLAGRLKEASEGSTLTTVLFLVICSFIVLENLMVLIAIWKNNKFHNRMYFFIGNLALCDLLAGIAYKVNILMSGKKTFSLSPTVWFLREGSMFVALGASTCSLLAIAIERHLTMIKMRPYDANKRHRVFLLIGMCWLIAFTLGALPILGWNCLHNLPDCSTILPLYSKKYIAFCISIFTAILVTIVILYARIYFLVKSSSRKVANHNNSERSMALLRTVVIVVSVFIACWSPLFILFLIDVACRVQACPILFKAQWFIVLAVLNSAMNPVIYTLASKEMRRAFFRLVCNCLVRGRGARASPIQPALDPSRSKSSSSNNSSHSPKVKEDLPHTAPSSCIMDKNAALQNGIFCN

For `CCc1nc(-c2ccc(-c3ccc(CCC(N)(CO)COP(=O)(O)O)cc3)cc2)co1` (racemic), the EC50 in experiment [1] was 5 nM; in experiment [2], 523 nM. In the experiment listed under Homo sapiens, the Ratio EC50 is 105.

As for `CCc1nc(-c2ccc(-c3ccc(CC[C@@](N)(CO)COP(=O)(O)O)cc3)cc2)co1`, the 50% effective concentration (EC50) amounted to 469 nM in experiment [1] and 736 nM in experiment [2]. Also, the Ratio EC50 in the experiment listed under Homo sapiens is 1.6.

In the case of `CCc1nc(-c2ccc(-c3ccc(CCC(N)(CO)CO)cc3)cc2)co1`, the EC50 is 332 nM in experiment [1] and over 10000 nM in experiment [2].

As to `CCc1nc(-c2ccc(-c3ccc(CC[C@](N)(CO)COP(=O)(O)O)cc3)cc2)co1`, the concentration giving a half-maximal response (EC50) came out at 2.2 nM in experiment [1] and 380 nM in experiment [2]. For the same compound, in the experiment filed under Homo sapiens, the Ratio EC50 was found to be 173.

In general, EC50 refers to the concentration giving half of the maximal effect.
